From a compilation of properties of binary mixtures (doi:10.1021/acs.jpcc.8b05573)

Assay: xn = mol fraction of the nth substance listed
Conditions: 100 kPa, x1 = 0.24

O=S(=O)([N-]S(=O)(=O)C(F)(F)F)C(F)(F)F.O=S(=O)([N-]S(=O)(=O)C(F)(F)F)C(F)(F)F.[Mg+2] + CCCC[N+]1(C)CCCC1.O=S(=O)([N-]S(=O)(=O)C(F)(F)F)C(F)(F)F
Conditions | electrical conductivity [S/m]
279.2 K | 0.003
282.4 K | 0.005
286.1 K | 0.006
289.5 K | 0.009
293 K | 0.013
296.9 K | 0.017
300.2 K | 0.022
304.4 K | 0.031
310.6 K | 0.046
317.5 K | 0.07
323.8 K | 0.096
334.5 K | 0.159
345.4 K | 0.252
355.5 K | 0.346
363.5 K | 0.461
372.9 K | 0.574
386 K | 0.786
400.6 K | 1.08
417.1 K | 1.44

O=S(=O)([N-]S(=O)(=O)C(F)(F)F)C(F)(F)F.O=S(=O)([N-]S(=O)(=O)C(F)(F)F)C(F)(F)F.[Zn+2] + CCCC[N+]1(C)CCCC1.O=S(=O)([N-]S(=O)(=O)C(F)(F)F)C(F)(F)F
Conditions | electrical conductivity [S/m]
337.3 K | 0.163
344.9 K | 0.213
366.8 K | 0.399
375.2 K | 0.508
391 K | 0.805
430.4 K | 1.79
449.5 K | 2.51

O=S(=O)([N-]S(=O)(=O)C(F)(F)F)C(F)(F)F.[Na+] + CCCC[N+]1(C)CCCC1.O=S(=O)([N-]S(=O)(=O)C(F)(F)F)C(F)(F)F
Conditions | electrical conductivity [S/m]
274.2 K | 0.006
283.8 K | 0.02
291.9 K | 0.041
300.2 K | 0.07
308.6 K | 0.119
323.4 K | 0.223
356.5 K | 0.663
362.4 K | 0.805
380.6 K | 1.24
417.8 K | 2.45
434.2 K | 3.04

O=S(=O)([N-]S(=O)(=O)C(F)(F)F)C(F)(F)F.[Li+] + CCCC[N+]1(C)CCCC1.O=S(=O)([N-]S(=O)(=O)C(F)(F)F)C(F)(F)F
Conditions | electrical conductivity [S/m]
272.9 K | 0.005
279.8 K | 0.01
288.8 K | 0.027
295.1 K | 0.052
305.1 K | 0.098
325.1 K | 0.235
338.2 K | 0.329
360.2 K | 0.633
371.2 K | 0.846
385.4 K | 1.24
409.4 K | 1.88
429.6 K | 2.77
